Laboratory results from ChEMBL document CHEMBL1143886, “In vitro spermicidal activity of peptides from amphibian skin: dermaseptin S4 and derivatives” (Bioorg Med Chem, 2008).
Activity calls are given as the source filed them. The calls are words filed in the database; no cut-off is given here.

Tests used:
Sperm [1] = test: Inhibition of human sperm motility at 5 ug/ml after 15 mins by CASA; assay type: functional
Sperm [2] = test: Inhibition of human sperm motility assessed as decrease in curvilenear velocity by CASA; assay type: functional, cell-based
Sperm [3] = test: Inhibition of human sperm motility assessed as decrease in average path velocity by CASA; assay type: functional
Sperm [4] = test: Inhibition of human sperm motility assessed as decrease in straight line velocity by CASA; assay type: functional
[5] = Inhibition of human sperm motility by Sander-Cramer modified assay; assay type: functional
HeLa = test: Cytotoxicity against human HeLa cells at above 16 ug/ml after 24 hrs by MTT assay; assay type: cell-based
[6] = Inhibition of human sperm motility at 20 ug/ml after 5 mins by CASA; assay type: functional; design: scale not given: the % may be the effect or the level left
Sperm [7] = test: Inhibition of human sperm motility upto 15 mins by CASA; assay type: functional, cell-based

CC(C)C[C@H](NC[C@@H](NC(=O)[C@H](C)NC(=O)[C@H](CC(N)=O)NC(=O)[C@H](CC(C)C)NC(=O)[C@H](C)NC(=O)[C@H](C)NC(=O)[C@H](CCCCN)NC(=O)[C@H](C)NC(=O)[C@H](C)NC(=O)[C@H](C)NC(=O)[C@H](CCCCN)NC(=O)[C@H](CC(C)C)NC(=O)[C@@H](NC(=O)[C@H](CCCCN)NC(=O)[C@H](CCCCN)NC(=O)[C@H](CC(C)C)NC(=O)[C@H](CC(C)C)NC(=O)[C@@H](NC(=O)[C@H](CCCCN)NC(=O)[C@H](Cc1c[nH]c2ccccc12)NC(=O)[C@H](CC(C)C)NC(=O)[C@H](C)N)[C@@H](C)O)C(C)C)C(C)C)C(=O)N[C@H](C(=O)NCC(=O)N[C@@H](C)C(=O)N[C@@H](CC(N)=O)C(=O)N[C@@H](C)C(=O)O)C(C)C
Activity (Sperm [1]): Active | Activity (Sperm [2]): Dose-dependent effect | Activity (Sperm [3]): Dose-dependent effect | Activity (Sperm [4]): Dose-dependent effect

CSCC[C@H](NC(=O)[C@H](Cc1c[nH]c2ccccc12)NC(=O)[C@H](CC(C)C)NC(=O)[C@H](C)N)C(=O)N[C@H](C(=O)N[C@@H](CC(C)C)C(=O)N[C@@H](CC(C)C)C(=O)N[C@@H](CCCCN)C(=O)N[C@@H](CCCCN)C(=O)N[C@H](C(=O)N[C@@H](CC(C)C)C(=O)N[C@@H](CCCCN)C(=O)N[C@@H](C)C(=O)N[C@@H](C)C(=O)N[C@@H](C)C(=O)N[C@@H](CCCCN)C(=O)N[C@@H](C)C(=O)N[C@@H](C)C(=O)N[C@@H](CC(C)C)C(=O)N[C@@H](CC(N)=O)C(=O)N[C@@H](C)C(=O)N[C@H](CN[C@@H](CC(C)C)C(=O)N[C@H](C(=O)NCC(=O)N[C@@H](C)C(=O)N[C@@H](CC(N)=O)C(=O)N[C@@H](C)C(N)=O)C(C)C)C(C)C)C(C)C)[C@@H](C)O
Activity (Sperm [2]): Dose-dependent effect | Activity (Sperm [3]): Dose-dependent effect | Activity (Sperm [4]): Dose-dependent effect

H-ALWKTLLKKVLKAAAK-NH2
EC100 [5]: 25 µg/mL | Activity (Sperm [2]): Dose-dependent effect | Activity (Sperm [3]): Dose-dependent effect | Activity (Sperm [4]): Dose-dependent effect | Activity (HeLa): Toxic

H-ALWKTLLKKVLKAAAKAALNAVLVGANA-OH [listing 1 of 2 here]
Activity (HeLa): Toxic

H-ALWKTLLKKVLKAAAKAALNAVLVGANA-OH [listing 2 of 2 here]
Activity [6]: 100%

H-ALWMTLLKKVLKAAAKAALNAVLVGANA-NH2 [listing 1 of 2 here]
Activity (HeLa): Toxic

H-ALWMTLLKKVLKAAAKAALNAVLVGANA-NH2 [listing 2 of 2 here]
EC100 [5]: 25 µg/mL

H-ALWMTLLKKVLKAAAKAALNAVLVGANA-OH
EC100 [5]: 25 µg/mL

H-LLKKVLKAAAKAALNAVLVGANA-OH
EC100 [5]: 25 µg/mL | Activity (Sperm [7]): inactive | Activity (Sperm [2]): Dose-dependent effect | Activity (Sperm [3]): Dose-dependent effect | Activity (Sperm [4]): Dose-dependent effect
